Literature values, collected in patent US20180207149A1, “METHODS AND COMPOSITIONS FOR ENHANCING IMMUNE RESPONSE TO VACCINATION” (priority 2015, published 2018).

Tested on: immunizing influenza vaccine strains
Conditions: elderly subjects with chronic illness; topical, before intradermal trivalent influenza vaccine

CC(C)Cn1cnc2c(N)nc3ccccc3c21 [imiquimod]
immunogenicity against the immunizing influenza vaccine strains: expedited, augmented and prolonged the immunogenicity
